Molecules are shown by their SMILES. Bounds are passed on as bounds.

Experimental findings from patent US20230365546A1, “5-SUBSTITUTED INDOLE 3-AMIDE DERIVATIVES, PREPARATION METHOD AND USE THEREOF” (ORIGIANT PHARMACEUTICAL CO., LTD, priority 2020, published 2023) are described below.

For one test, the target named is RIPK1 (Homo sapiens (Human), UniProt Q13546). The test can be described thus: In vitro kinase assay (Eurofins Kinase Profiler), IC50. As to conditions: 0.001-10 μM, read-out: RIPK 1 (IC50). It counts as biochemical.
Another test has as its system HT-29 cells. The test can be described thus: Protection against programmed necrosis of HT-29 cells (TNF α/Smac mimetic/Z-VAD-FMK, CCK8). It is filed as cell-based. The settings on record: Homo sapiens, TNF α/Smac mimetic/Z-VAD-FMK induced 24 h, CCK8, read-out: HT-29 (EC50).

RIPK1, sequence (Q13546 whole entry): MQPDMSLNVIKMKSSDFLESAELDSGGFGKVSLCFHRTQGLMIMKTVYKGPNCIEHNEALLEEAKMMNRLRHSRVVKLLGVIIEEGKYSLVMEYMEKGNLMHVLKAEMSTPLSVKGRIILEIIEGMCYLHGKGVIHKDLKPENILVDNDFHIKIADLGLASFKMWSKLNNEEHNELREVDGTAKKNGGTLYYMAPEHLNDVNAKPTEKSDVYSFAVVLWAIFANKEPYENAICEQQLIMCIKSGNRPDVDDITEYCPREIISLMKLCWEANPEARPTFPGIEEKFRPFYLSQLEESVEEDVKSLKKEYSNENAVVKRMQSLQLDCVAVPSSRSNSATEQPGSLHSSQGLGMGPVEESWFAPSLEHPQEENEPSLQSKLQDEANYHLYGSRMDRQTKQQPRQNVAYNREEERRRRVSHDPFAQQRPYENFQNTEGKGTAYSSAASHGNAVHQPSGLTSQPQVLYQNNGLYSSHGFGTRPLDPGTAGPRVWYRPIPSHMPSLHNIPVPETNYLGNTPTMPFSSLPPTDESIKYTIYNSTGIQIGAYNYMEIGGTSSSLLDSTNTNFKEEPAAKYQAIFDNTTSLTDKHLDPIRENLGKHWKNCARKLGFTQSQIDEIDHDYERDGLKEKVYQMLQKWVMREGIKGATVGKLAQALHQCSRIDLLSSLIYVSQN

Usually IC50 stands for the midpoint of a concentration-inhibition curve. For orientation: EC50 means the concentration at which the effect is half-maximal. For the compound `C[C@H](NC(=O)c1cn(C)c2ccc(-c3ccc4c(C(=O)NCC(C)(C)C)c[nH]c4c3)cc12)c1cccc(F)c1` [Compound 119], the IC50 at RIPK1 is 1 to 10 nM. For the same compound, the EC50 with HT-29 cells lay in the range of 1 to 10 nM.
Consider `Cc1ccc([C@H](C)NC(=O)c2cn(C)c3ccc(-c4ccn5nc(NC(=O)C6CC6)nc5c4)cc23)cc1` [Compound 120], for which the 50% inhibitory concentration (IC50) on RIPK1 was 1 to 10 nM. The EC50 with HT-29 cells was less than 1 nM.
Regarding `CC(C)C(=O)Nc1nc2cc(-c3ccc4c(c3)c(C(=O)N[C@H](C)c3ccccc3)cn4C)ccn2n1` [Compound 121], the IC50 at RIPK1 fell in the range of 10 to 100 nM. The EC50 with HT-29 cells lay within 1 to 10 nM.
Consider `CC(C)C(=O)Nc1nc2cc(-c3ccc4c(c3)c(C(=O)N[C@@H](C)c3ccccc3)cn4C)ccn2n1` [Compound 122], for which the IC50 on RIPK1 was in the range of 1 to 10 nM. Further, in the test with HT-29 cells, the EC50 is less than 1 nM.
Regarding `CC(C)C(=O)Nc1nc2cc(-c3ccc4c(c3)c(C(=O)NC(C)(C)c3ccccc3)cn4C)ccn2n1` [Compound 123], at RIPK1, the IC50 fell in the range of 10 to 100 nM. Besides, the EC50 with HT-29 cells is 1 to 10 nM.
Turning to `CC(C)C(=O)Nc1nc2cc(-c3ccc4c(c3)c(C(=O)NC(C)c3cccc(F)c3)cn4C)ccn2n1` (centres unmarked) [Compound 124], the IC50 at RIPK1 lay in the range of 10 to 100 nM. Also, the EC50 in the test with HT-29 cells lay within 1 to 10 nM.
On to `CC(C)C(=O)Nc1nc2cc(-c3ccc4c(c3)c(C(=O)N[C@H](C)c3cccc(F)c3)cn4C)ccn2n1` [Compound 125], for which, at RIPK1, the IC50 is not below 1000 nM. In addition, the concentration giving a half-maximal response (EC50) in the test on HT-29 cells is not below 1000 nM.
Turning to `CC(C)C(=O)Nc1nc2cc(-c3ccc4c(c3)c(C(=O)N[C@H](C)c3cccc(Cl)c3)cn4C)ccn2n1` [Compound 126], the IC50 on RIPK1 lay within 10 to 100 nM. For the same compound, in the test with HT-29 cells, the EC50 was 10 to 100 nM.
As for `CC(C)C(=O)Nc1nc2cc(-c3ccc4c(c3)c(C(=O)N[C@@H](C)c3cccc(Cl)c3)cn4C)ccn2n1` [Compound 127], the IC50 on RIPK1 was in the range of 10 to 100 nM. Further, the EC50 in the test on HT-29 cells is less than 1 nM.
Taken in the same sequence, the figures for `COc1cccc([C@@H](C)NC(=O)c2cn(C)c3ccc(-c4ccn5nc(NC(=O)C(C)C)nc5c4)cc23)c1` [Compound 128] were 100 to 1000 nM and 100 to 1000 nM.
Take `COc1cccc([C@H](C)NC(=O)c2cn(C)c3ccc(-c4ccn5nc(NC(=O)C(C)C)nc5c4)cc23)c1` [Compound 129]: the half-inhibitory concentration (IC50) on RIPK1 lay within 10 to 100 nM. Besides, the concentration giving a half-maximal response (EC50) with HT-29 cells is 1 to 10 nM.
Turning to `CC(C)C(=O)Nc1nc2cc(-c3ccc4c(c3)c(C(=O)NC(C)c3ccc(F)cc3)cn4C)ccn2n1` (centres unmarked) [Compound 130], at RIPK1, the IC50 lay in the range of 10 to 100 nM. For the same compound, in the test on HT-29 cells, the EC50 lay within 1 to 10 nM.
In the case of `CC(C)C(=O)Nc1nc2cc(-c3ccc4c(c3)c(C(=O)N[C@@H](C)c3ccc(F)cc3)cn4C)ccn2n1` [Compound 131], the IC50 at RIPK1 lay within 10 to 100 nM. Further, the half-maximal effective concentration (EC50) in the test on HT-29 cells was less than 1 nM.
For the compound `CC(C)C(=O)Nc1nc2cc(-c3ccc4c(c3)c(C(=O)N[C@H](C)c3ccc(F)cc3)cn4C)ccn2n1` [Compound 132], the IC50 at RIPK1 is 100 to 1000 nM. Also, the EC50 in the test on HT-29 cells lay in the range of 100 to 1000 nM.
For the compound `COc1ccc([C@H](C)NC(=O)c2cn(C)c3ccc(-c4ccn5nc(NC(=O)C(C)C)nc5c4)cc23)cc1` [Compound 133], at RIPK1, the half-inhibitory concentration (IC50) lay within 10 to 100 nM. Moreover, in the test on HT-29 cells, the EC50 was less than 1 nM.
Regarding `COc1ccc([C@@H](C)NC(=O)c2cn(C)c3ccc(-c4ccn5nc(NC(=O)C(C)C)nc5c4)cc23)cc1` [Compound 134], at RIPK1, the IC50 was not below 1000 nM. In the test with HT-29 cells, the EC50 lay in the range of 100 to 1000 nM.
Turning to `CC(C)C(=O)Nc1nc2cc(-c3ccc4c(c3)c(C(=O)NC(C)c3ccccn3)cn4C)ccn2n1` (centres unmarked) [Compound 135], the IC50 at RIPK1 lay in the range of 10 to 100 nM. For the same compound, the EC50 in the test on HT-29 cells fell in the range of 1 to 10 nM.
`CC(C)C(=O)Nc1nc2cc(-c3ccc4c(c3)c(C(=O)N[C@H](C)c3ccccn3)cn4C)ccn2n1` [Compound 136]: on RIPK1, the IC50 was in the range of 100 to 1000 nM. Besides, in the test on HT-29 cells, the EC50 lay in the range of 10 to 100 nM.
Consider `CC(C)C(=O)Nc1nc2cc(-c3ccc4c(c3)c(C(=O)N[C@@H](C)c3ccccn3)cn4C)ccn2n1` [Compound 137], for which the IC50 at RIPK1 was 10 to 100 nM. Besides, in the test with HT-29 cells, the EC50 was less than 1 nM.
`CC(C)C(=O)Nc1nc2cc(-c3ccc4c(c3)c(C(=O)NC(C)c3cccnc3)cn4C)ccn2n1` (centres unmarked) [Compound 138]: the half-inhibitory concentration (IC50) at RIPK1 was not below 1000 nM. For the same compound, the EC50 in the test on HT-29 cells is not below 1000 nM.
As for `CC(C)C(=O)Nc1nc2cc(-c3ccc4c(c3)c(C(=O)NC(C)c3ccncc3)cn4C)ccn2n1` (centres unmarked) [Compound 139], the IC50 on RIPK1 is 10 to 100 nM. The EC50 in the test on HT-29 cells is 10 to 100 nM.
Consider `CC(C)C(=O)Nc1nc2cc(-c3ccc4c(c3)c(C(=O)N[C@H]3CCCc5ccccc53)cn4C)ccn2n1` [Compound 140], for which the IC50 at RIPK1 fell in the range of 100 to 1000 nM. In addition, the half-maximal effective concentration (EC50) in the test on HT-29 cells fell in the range of 10 to 100 nM.
Consider `C[C@H](NC(=O)c1cn(C)c2ccc(-c3ccn4nc(N)nc4c3)cc12)c1cccc(F)c1` [Compound 141, (S)-5-(2-amino-[1,2,4]triazolo[1,5-a]pyridin-7-yl)-N-(1-(3-fluorophenyl)ethyl)-1-methyl-1H-indole-3-carboxamide], for which the IC50 on RIPK1 was in the range of 10 to 100 nM. Also, the EC50 in the test with HT-29 cells lay within 1 to 10 nM.
Taken in the same sequence, the figures for `C[C@H](NC(=O)c1cn(C)c2ccc(-c3ccn4nc(NC(=O)C5CC5(F)F)nc4c3)cc12)c1cccc(F)c1` (stereo partly drawn) [Compound 142, 5-(2-(2,2-difluorocyclopropane-1-carboxamido)-[1,2,4]triazolo[1,5-a]pyridin-7-yl)-N-((S)-1-(3-fluorophenyl)ethyl)-1-methyl-1H-indole-3-Carboxamide] were 10 to 100 nM and less than 1 nM.
Taken in the same sequence, the figures for `C[C@H](NC(=O)c1cn(C)c2ccc(-c3ccn4nc(NC(=O)[C@H]5C[C@H]5F)nc4c3)cc12)c1cccc(F)c1` [Compound 143] were 10 to 100 nM and less than 1 nM.
For `C[C@H](NC(=O)c1cn(C)c2ccc(-c3ccn4nc(NC(=O)[C@@H]5C[C@@H]5F)nc4c3)cc12)c1cccc(F)c1` [Compound 144], the IC50 on RIPK1 was in the range of 10 to 100 nM. Besides, the EC50 in the test with HT-29 cells was less than 1 nM.
For `C[C@H](NC(=O)c1cn(C)c2ccc(-c3ccn4nc(NC(=O)C5(F)CC5)nc4c3)cc12)c1cccc(F)c1` [Compound 145], the IC50 on RIPK1 fell in the range of 1 to 10 nM. Besides, in the test with HT-29 cells, the EC50 is less than 1 nM.
As to `C[C@H](NC(=O)c1cn(C)c2ccc(-c3ccn4nc(NC(=O)C5CC(F)(F)C5)nc4c3)cc12)c1cccc(F)c1` [Compound 146], at RIPK1, the IC50 was 1 to 10 nM. The EC50 in the test with HT-29 cells was less than 1 nM.
Taken in the same sequence, the figures for `C[C@H](NC(=O)c1cn(C)c2ccc(-c3ccn4nc(NC(=O)C5CCC(F)(F)CC5)nc4c3)cc12)c1cccc(F)c1` [Compound 147] were 10 to 100 nM and 1 to 10 nM.
Take `C[C@H](NC(=O)c1cn(C)c2ccc(-c3ccn4nc(NC(=O)C(C)(C)CCl)nc4c3)cc12)c1cccc(F)c1` [Compound 148]: the IC50 on RIPK1 was not below 1000 nM. The EC50 with HT-29 cells is not below 1000 nM.
For the compound `CCn1cc(C(=O)N[C@@H](C)c2cccc(F)c2)c2cc(-c3ccn4nc(NC(=O)C5CC5)nc4c3)ccc21` [Compound 149], at RIPK1, the IC50 was 10 to 100 nM. The EC50 in the test on HT-29 cells was less than 1 nM.
With `CC(C)n1cc(C(=O)N[C@@H](C)c2cccc(F)c2)c2cc(-c3ccn4nc(NC(=O)C5CC5)nc4c3)ccc21` [Compound 150], the IC50 on RIPK1 lay within 10 to 100 nM. Moreover, the EC50 in the test on HT-29 cells was in the range of 1 to 10 nM.
Consider `CCCn1cc(C(=O)N[C@@H](C)c2cccc(F)c2)c2cc(-c3ccn4nc(NC(=O)C5CC5)nc4c3)ccc21` [Compound 151], for which, on RIPK1, the IC50 is 1 to 10 nM. For the same compound, the EC50 in the test with HT-29 cells was less than 1 nM.
Consider `CCCCn1cc(C(=O)N[C@@H](C)c2cccc(F)c2)c2cc(-c3ccn4nc(NC(=O)C5CC5)nc4c3)ccc21` [Compound 152], for which, on RIPK1, the IC50 was in the range of 10 to 100 nM. In addition, the half-maximal effective concentration (EC50) in the test with HT-29 cells lay within 10 to 100 nM.
